In brackets after ≈: the same amount, converted by molar mass. Where two headings read alike, the source gives them in different places.
Legend:
Yeast and fungi = assay: Antimicrobial activity, two-fold serial dilution in agar media (summary); type: cell-based; conditions: in words
[1] = system: B16-F10 (murine melanoma) cells; assay: In vitro cytotoxicity, neutral red staining; type: cell-based; conditions: Mus musculus; B16-F10, 72 hours, 37° C.
[2] = system: Streptococcus pyogenes A20201; assay: Antimicrobial activity, two-fold serial dilution in agar media; type: cell-based; conditions: Nutrient agar
[3] = system: DNA synthesis in L1210 leukemia cells; assay: Inhibition of DNA synthesis in L1210 leukemia cells (labelled precursor incorporation); type: cell-based, murine; conditions: Mus musculus, 3H-thymidine, 15 min with test material, then 60 min
[4] = system: Preopionibacterium acnes A21933; assay: Antimicrobial activity, two-fold serial dilution in agar media; type: cell-based; conditions: Gifu anaerobic medium agar
[5] = system: Streptococcus faecalis A9612; assay: microbe, parasite or virus in culture; conditions: Enterococcus faecalis
[6] = system: Staphylococcus epidermidis D153; assay: Antimicrobial activity, two-fold serial dilution in agar media; type: cell-based; conditions: Nutrient agar
[7] = system: Moser (human colorectal carcinoma) cells; assay: In vitro cytotoxicity, neutral red staining; type: cell-based
[8] = system: Staphylococcus aureus A20234; assay: Antimicrobial activity, two-fold serial dilution in agar media; type: cell-based; conditions: Nutrient agar
[9] = system: Clostridium difficile A21675; assay: microbe, parasite or virus in culture; conditions: Clostridioides difficile
gram-negative bacteria = assay: Antimicrobial activity, two-fold serial dilution in agar media (summary); type: cell-based; conditions: in words
[10] = system: Candida albicans IAM 4888; assay: microbe, parasite or virus in culture; conditions: IAM4888
[11] = system: Staphylococcus aureus 209P; assay: Antimicrobial activity, two-fold serial dilution in agar media; type: cell-based; conditions: Nutrient agar
Proteus mirabilis A9554 = assay: microbe, parasite or virus in culture
[12] = system: RNA synthesis in L1210 leukemia cells; assay: Inhibition of RNA synthesis in L1210 leukemia cells (labelled precursor incorporation); type: cell-based, murine; conditions: Mus musculus, 14C-uridine, 15 min with test material, then 60 min
[13] = system: Bacteroides fragilis A22035; assay: microbe, parasite or virus in culture
[14] = system: Micrococcus luteus PCI 1001; assay: Antimicrobial activity, two-fold serial dilution in agar media; type: cell-based; conditions: PCI1001, Nutrient agar
[15] = system: Staphylococcus aureus Smith; assay: as above; type: cell-based; conditions: Nutrient agar
gram-positive bacteria = assay: Antimicrobial activity, two-fold serial dilution in agar media (summary); type: cell-based; conditions: in words
[16] = system: HCT-116 (human colon carcinoma) cells; assay: In vitro cytotoxicity, neutral red staining; type: cell-based; conditions: HCT-116, 72 hours, 37° C.
anaerobic bacteria = assay: Antimicrobial activity, two-fold serial dilution in agar media (summary); type: cell-based; conditions: in words
[17] = system: Aspergillus fumigatus IAM 2530; assay: microbe, parasite or virus in culture; conditions: IAM2530
[18] = system: Clostridium perfringens A9635; assay: microbe, parasite or virus in culture
[19] = system: Cryptococcus neoformans D49; assay: microbe, parasite or virus in culture
[20] = system: macromolecule (DNA, RNA and protein) synthesis in L1210 murine leukemia cells; assay: Inhibitory effects on macromolecule (DNA, RNA and protein) synthesis (summary); type: cell-based; conditions: in words
Proteus vulgalis A9436 = assay: microbe, parasite or virus in culture
[21] = system: Protein synthesis in L1210 leukemia cells; assay: Inhibition of protein synthesis in L1210 leukemia cells (labelled precursor incorporation); type: cell-based, murine; conditions: Mus musculus, 3H-leucine, 15 min with test material, then 60 min
[22] = system: Trichophyton mentagrophytes D155; assay: microbe, parasite or virus in culture
Solubility = type: physicochemical
Escherichia coli NIHJ = assay: microbe, parasite or virus in culture
[23] = system: Klebsiella pneumoniae D11; assay: microbe, parasite or virus in culture
[24] = system: Pseudomonas aeruginosa A9930; assay: microbe, parasite or virus in culture
[25] = system: murine and human tumor cells; assay: In vitro cytotoxicity against tumor cells (summary); type: cell-based
[26] = system: Bacillus subtilis PCI 219; assay: Antimicrobial activity, two-fold serial dilution in agar media; type: cell-based; conditions: PCI219, Nutrient agar
[27] = in words, literature; cited from earlier work

Which results are given for `Cc1cc2c(c3oc(C(O)(CO)C4CO4)cc(=O)c13)C(=O)c1c(O)cccc1C2=O` (stereo not shown) [BU-3839T]?
Susceptibility of yeast and fungi (Yeast and fungi): not susceptible; IC50 [1]: 0.9 ng/mL (≈ 0.0022 µM); MIC [2]: 0.1 µg/mL (≈ 0.245 µM); IC50 [3]: 0.013 µg/mL (≈ 0.0318 µM); MIC [4]: 0.8 µg/mL (≈ 1.96 µM); MIC [5]: 0.4 µg/mL (≈ 0.98 µM); MIC [6]: 0.1 µg/mL (≈ 0.245 µM); IC50 ([7]; Moser, 72 hours, 37° C., read-out: IC50): 0.0046 µg/mL (≈ 0.0113 µM); MIC [8]: 0.05 µg/mL (≈ 0.122 µM); MIC [9]: 0.4 µg/mL (≈ 0.98 µM); Activity against gram-negative bacteria (gram-negative bacteria): relatively weak activity; MIC [10]: > 50 µg/mL; Body weight change on day 4 (P388 leukemia; 0.008 mg/kg/day, QD × 3, ip): +1.0 g; MST (median survival time) (P388 leukemia; 0.008 mg/kg/day, QD × 3, ip): 11.0 days; T/C (P388 leukemia; 0.008 mg/kg/day, QD × 3, ip, T/C ≥ […] significant): 110%; MST (median survival time) (P388 leukemia; 0.5 mg/kg/day, QD × 3, ip): 14.5 days; MST (median survival time) (P388 leukemia; 1 mg/kg/day, QD × 3, ip): 7.0 days; maximum T/C value (P388 leukemia; P388 leukemia, ip, QD×3): 145%; Chemotherapeutic activity against P388 leukemia (P388 leukemia; in words): relatively broad and moderate chemotherapeutic activity; MIC [11]: 0.05 µg/mL (≈ 0.122 µM); MIC (Proteus mirabilis A9554): > 50 µg/mL; IC50 [12]: 0.029 µg/mL (≈ 0.071 µM); MIC [13]: 0.1 µg/mL (≈ 0.245 µM); MIC [14]: 0.025 µg/mL (≈ 0.0612 µM); MIC [15]: 0.05 µg/mL (≈ 0.122 µM); Inhibitory activity against gram-positive bacteria (gram-positive bacteria): remarkable inhibitory activity; IC50 [16]: 2.6 ng/mL (≈ 0.00637 µM); Activity against anaerobic bacteria (anaerobic bacteria): relatively weak activity; MIC [17]: > 50 µg/mL; MIC [18]: 0.4 µg/mL (≈ 0.98 µM); MIC [19]: > 50 µg/mL; Inhibition of macromolecule synthesis [20]: inhibited DNA, RNA and protein synthesis non-specifically; MIC (Proteus vulgalis A9436): 6.3 µg/mL (≈ 15.4 µM); IC50 [21]: 0.039 µg/mL (≈ 0.0955 µM); MIC [22]: > 50 µg/mL; Solubility (Solubility; N,N-dimethylformamide): soluble; Solubility (Solubility; alkaline water): slightly soluble; Solubility (Solubility; chloroform): slightly soluble; Solubility (Solubility; dimethyl sulfoxide): soluble; Solubility (Solubility; methylene chloride): slightly soluble; Solubility (Solubility; other organic solvents): almost insoluble; Solubility (Solubility; water): almost insoluble; MIC (Escherichia coli NIHJ): > 50 µg/mL; MIC [23]: 6.3 µg/mL (≈ 15.4 µM); MIC [24]: > 50 µg/mL; Cytotoxicity superior to mitomycin C in terms of IC50 value ([25]; approximately, ratio to mitomycin C): 300-600 times; Cytotoxicity against tumor cells ([25]; in words): quite potent; MIC [26]: 0.05 µg/mL (≈ 0.122 µM)

With `CO[C@@]12[C@H](COC(N)=O)C3=C(C(=O)C(C)=C(N)C3=O)N1C[C@@H]1N[C@@H]12` [Mitomycin C, reference compound] as the compound, how does the IC50 ([7]; 72 h) read?
The IC50 was 1.2 µg/mL (≈ 3.59 µM).

What about the “Inhibition of macromolecule synthesis” value [20] of the same compound?
The value was “specific inhibition of DNA synthesis”.

With `Cc1cc2c(c3oc(C4(C5CO5)CO4)cc(=O)c13)C(=O)c1c(O)cccc1C2=O` (stereo not shown) [SF-2330] as the compound, how does the Antibacterial activity [27] read?
The Antibacterial activity was “antibacterial activity”.

Which Antibacterial activity [27] does the source give for `CCC(C)c1cc(=O)c2c(CC(=O)O)cc3c(c2o1)C(=O)c1c(O)cccc1C3=O` (stereo not shown) [SS-43405D] here?
The Antibacterial activity was “antibacterial activity”.

From patent US5001058A (Bristol-Myers Company, priority 1989, dated 1991)
